10 molecules from patent publication US9738786B2, “Dyes for labelling molecular ligands” (ILLUMINA CAMBRIDGE LIMITED, priority 2011, dated 2017) can be followed below.

Common to all, as to assay type: physicochemical
Data set [1] can be described thus: Fluorescence of dye solutions in water.
Data set [2] is described as follows: Stability over time (optical density of solution). The settings on record: after 14 days.
Data set [3] in a line: Absorption spectra of dye solutions in water. The settings on record: for absorption maximum: in water.
The nature of data set [4]: Photo-stability of dye solutions in water under irradiation.
A short description of data set [5]: Stability of Dye 5A and 5B versus commercial dyes (FIG. 3).
The nature of data set [6]: Spectral properties of dye 9 (ScanMix). The protocol:
[drawing 69] 3 ml of acetic anhydride and 0.3 g triethylamine were heated 20 minutes at 110° C., acetic anhydride-removed under reduced pressure then the product precipitated with diethyl ether. The product was purified by HPLC. The absorption maximum of equimolar solutions in ScanMix of new dye 9 was 536 nm, 0.162 a.u.
A mixture of 0.39 g (1 mmol) of 4-ethyl-2-(2-anilino)vinyl-oxazolo[4,5-b]pyridinium iodide, 0.35 g (1 mmol) 2,3,3-trimethyl-1-(5-carboxypentyl)-3H-indolium-5-sulfonate, 3 ml of acetic anhydride and 0.13 g of sodium acetate was heated 20 minutes at 110° C. Acetic anhydride was removed under reduced pressure then the product precipitated with diethyl ether. The product was purified by flash column. […] This new dye 9 (max 583 nm, 447 a.u.) has stronger fluorescence compared with DG527 (594 nm, 401 a.u.).

A short description of data set [7]: Self-quenching of fluorescence with increasing dye/protein ratio (FIG. 1). The settings on record: relative to dye B with six sulfonic groups.
Setting [8] is: in water, same optical density, excitation at 545 nm.
[9] abbreviates: Table 1, symmetrical dyes, solutions in water.

Consider “1,1,3-trimethyl-3-(3-sulfophenyl)-1H-benzo[e]indolium-disulfonate [CP-13B]”, for which, in data set [1] (water), the fluorescence in water result is given as “strong fluorescence”.
The molecule `CCN1C(=CC=CC2=[N+](CCCCCC(=O)O)c3ccc(S(=O)(=O)O)cc3C2(C)C)C(C)(C)c2cc(S(=O)(=O)[O-])ccc21` [Cy3, reference compound] yielded an optical density remaining in data set [2] of 85%. Besides, in data set [1] (setting [8]), the fluorescence intensity was 422 a.u and the “wavelength of fluorescence maximum” value stood at 565 nm.
In the case of `CC1(C)C(/C=C/C(=C/C=C2/N(c3cccc(S(=O)(=O)[O-])c3)c3ccc(S(=O)(=O)[O-])cc3C2(C)C)c2ccc(C(=O)O)cc2)=[N+](c2cccc(S(=O)(=O)[O-])c2)c2ccc(S(=O)(=O)[O-])cc21.[Na+].[Na+].[Na+]` [Dye 1], in data set [3], the absorption maximum amounted to 658 nm. The “remaining initial fluorescence intensity” value in data set [4] (solution in water, after 25 days of irradiation) worked out at 85%. The “photostability relative to Alexa 647” value in data set [4] (solutions in water) is given as “improved photostability”.
Consider `CC1(C)C(/C=C/C(=C/C=C2/N(c3cccc(S(=O)(=O)O)c3)c3ccc4c(S(=O)(=O)[O-])cc(S(=O)(=O)O)cc4c3C2(C)C)c2ccc(C(=O)O)cc2)=[N+](c2cccc(S(=O)(=O)O)c2)c2ccc3c(S(=O)(=O)O)cc(S(=O)(=O)O)cc3c21` [Dye 5A], for which, in data set [1], the “fluorescence intensity compared with Dy681 and Dy682” value is reported as “higher”; the “shift of fluorescence maximum compared with Dy681 and Dy682” value was “red shifted”. This molecule also displayed an absorption maximum in data set [3] of 686 nm. The “stability compared with commercial dyes” value in data set [5] is on record as “better stability”.
Consider `CCN1/C(=C/C=C(/C=C/C2=[N+](CC)c3cc(S(=O)(=O)O)c4cc(S(=O)(=O)O)ccc4c3C2(C)C)c2ccc(C(=O)O)cc2)C(C)(C)c2c1cc(S(=O)(=O)[O-])c1cc(S(=O)(=O)O)ccc21` [Dye 6], for which the relative fluorescence intensity entry in data set [1] is on record as “higher relative fluorescence intensity”. In data set [3], this molecule displayed an absorption maximum of 673 nm.
In data set [6], `CC[n+]1cccc2oc(/C=C/C=C/C=C3/N(CCCCCC(=O)O)c4ccc(S(=O)(=O)[O-])cc4C3(C)C)nc21` [Dye 9] registered a fluorescence intensity of 447 a.u and a fluorescence max of 583 nm. Also, the absorption maximum entry in data set [6] (compared to laser excitation wavelength (532 nm)) is given as “about 536 nm”. In data set [6] (equimolar solutions in ScanMix), the “absorbance at absorption maximum” value came to 0.162 a.u and the absorption maximum amounted to 536 nm.
On to `CC1(C)C(/C=C/C=C2/N(c3cccc(S(=O)(=O)O)c3)c3cc(S(=O)(=O)[O-])c4cc(S(=O)(=O)O)ccc4c3C2(C)C)=[N+](CCCCCC(=O)O)c2ccc(S(=O)(=O)O)cc21` [Example XX], for which, in data set [3], the absorption maximum amounted to 567 nm.
On to `CC1(C)C(/C=C/C=C/C=C2/N(c3cccc(S(=O)(=O)O)c3)c3cc(S(=O)(=O)[O-])c4cc(S(=O)(=O)O)ccc4c3C2(C)C)=[N+](CCCCCC(=O)O)c2ccc(S(=O)(=O)O)cc21` [NR665], for which, in data set [1] (in water), the “fluorescence strength relative to Dy681” value is on record as “more than 3 times”. In data set [1] (water), this molecule registered a fluorescence max of 687 nm. Moreover, in data set [3], the absorption maximum is listed as 664 nm.
For `CC1(C)C(/C=C/C=C/C=C2/N(c3ccccc3)c3ccccc3C2(C)C)=[N+](c2ccccc2)c2ccccc21` [S0 (2), reference compound], the “Fluorescence intensity, %” value in data set [1] (Table 1, symmetrical dyes in water, S0 (2) = 100) came out at 100%. Also, the “Fluorescence max, nm” value in data set [1] (setting [9]) was 674 nm. The “Absorption max, nm” value in data set [3] (setting [9]) is reported as 649 nm.
In the case of `CC[N+]1=C(/C=C/C=C/C=C2/N(CCCCCC(=O)O)c3ccc(S(=O)(=O)O)cc3C2(C)C)C(C)(C)c2cc(S(=O)(=O)[O-])ccc21` [dye A], the “self-quenching with increasing dye concentration” value in data set [7] was “more readily self-quenched”.
